Assay results from patent US6447801B1, “Anti-parasitic action of N,N-diethyl-m-toluamide (deet) and formulations that prolong its activity in the skin” (priority 1997, dated 2002).
Like-named read-outs stand apart in the source and are kept apart here.

Columns and labels:
cercariae = settings: in tissue culture / in vitro, cited from earlier work
[1] = Disposition of 14C-DEET and 14C-Lipodeet after skin application (skin, blood, urine, bedding radioactivity)
Experimental: In this series of experiments, 11.472 mg of ^14C-DEET of ^14C-Lipodeet (in 100 μl) was applied to 5 cm^2 area of the mice abdominal skin. At different time points (15 min, 30 min, 60 min, 2 hrs., 4 hrs., 24 hrs., 48 hrs. and 72 hrs.) after application, the whole area of skin where the lipodeet had been applied was collected, underlying tissue removed and the radioactivity measured in a Beckman β-counter. Samples of blood and urine were also collected at these time points from each mouse to measure the radioactivity (n=10 for each time point). […] In this study, we made observations only up to 72 hrs. […] There are two possibilities, (1) substantial quantities of both DEET and Lipodeet are absorbed systemically through the skin within 24 hrs., or (2) both the chemicals are lost in the bedding due to direct contact of the applied area to the bedding materials. The first hypothesis was tested by measuring ^14C levels in the blood and urine in these animals.

SMILES	cercaricidal effect (cercariae)	further results
C[C@@H]1CC[C@H]2C(C)(C)[C@H]3C[C@@]12CC[C@@]3(C)O [Cederol]	significant cercaricidal effect	
CCCCCCCCCCCC(=O)N(CC)CC [N,N-diethyl lauramide]	significant cercaricidal effect	
O=C(Nc1ccc([N+](=O)[O-])cc1Cl)c1cc(Cl)ccc1O [Niclosamide]	significant cercaricidal effect	
CCN(CC)C(=O)c1cccc(C)c1 [^14C-DEET]		urine radioactivity ([1]; 15 minutes after application): > 5.7×10^7 cpm/ml; radio label in the blood ([1]; within 15 minutes after application): Significant quantity of the radio label was present in the blood
O=C(OCc1ccccc1)c1ccccc1 [benzyl benzoate]	significant cercaricidal effect	
CCCCOC(=O)c1ccccc1C(=O)OCCCC [dibutyl phthalate]	significant cercaricidal effect	
Oc1c(Cl)cc(Cl)c(Cl)c1Cc1c(O)c(Cl)cc(Cl)c1Cl [hexachlorophene]	significant cercaricidal effects	cercaricidal effect (cercariae; listed as hexachlorophere): significant cercaricidal effect
